Data: patent publication US10351500B2, “Method of using of dihydro-resveratrol or its stilbenoid derivatives and/or chemical variants as antimicrobial agents” (Hong Kong Baptist University, priority 2015, dated 2019)

Key:
[1] = tested on: cerulein-induced acute pancreatitis and associated pulmonary injury; experiment: cerulein-induced acute pancreatitis in rats, oral dihydro-resveratrol; assay type: in vivo, Sprague-Dawley rats
From the text: Among the several established animal models, repetitive intraperitoneal (i.p.) injection of cholecystokinin secretagogue, cerulein, is the most widely used and a highly reproducible method for the production of an experimental acute pancreatitis. Followed by a single shot of lipopolysaccharide (LPS), pulmonary injury characterized by neutrophil sequestration in the lung tissues and increased permeability of the alveolar membrane barrier is often observed as an acute pancreatitis associated complication. For the diagnosis of the onset of acute pancreatitis, bulky leakage of digestive enzymes, namely α-amylase, into the bloodstream is regarded as the principal pathological parameter. For evaluating the severity of acute pancreatitis and the associated pulmonary injury, morphological alterations of organ architecture including interstitial edema, cellular damage, leukocyte infiltration and hemorrhage are characterized as the histological and/or pathological parameters. Besides histological examination, aberrant MPO activity is often measured for assessing the severity of neutrophil-mediated inflammatory condition. Both the local and systemic inflammatory responses can be further confirmed by the high levels of pro-inflammatory cytokines present in the homogenates of affected tissues. Moreover, glutathione depletion, a defense mechanism, is one of the most common parameters for assessing the severity of tissue injury.
Evaluation of biological activities. Sprague-Dawley rats aged 28 days weighing in the range of 70 to 90 g were randomly assigned into 6 groups of 6 to 8 individuals. The rats were housed with an ambient temperature of 23±2° C., a relative humidity of 60 to 80% and a 12-h light/dark cycle. Prior to the experiment, the rats were starved overnight but allowed with free access to water. Experimental acute pancreatitis was induced in the rats by six hourly i.p. injections of cerulein at the supramaximally stimulating dose (50 μg/kg) followed by a single dose of LPS at 7.5 mg/kg 1 h after the last cerulein injection, and this group of rats was designated as the cerulein group. The control group received injections of 0.9% saline instead of cerulein in the same volume and at same time intervals. The treatment groups given with cerulein and oral doses of dihydro-resveratrol (10, 20 or 50 mg/kg) were designated as Cerulein+D-res 10 or 20 or 50 mg/kg. The therapeutic intervention was given 30 minutes after the first cerulein injection for three consecutive hours. Upon scarification, pancreata were immediately removed, weighed, trimmed from fat and fixed in 4% paraformaldehyde-phosphate buffered saline overnight at 4° C. Samples were then processed, embedded in paraffin wax, sectioned and subjected to H&E staining. Levels of TNF-α in pancreatic and pulmonary samples were determined using commercial ELISA kits. Tissue homogenates were subjected to biochemical assays for the evaluation of MPO activity and glutathione content.

pancreatic acinar cells = assay type: cell-based; details: rat, 24 h
Procedure: Functional intact acini were dissociated from pancreatic tissue using collagenase digestion with mild shearing forces. Acini were cultured in Dulbecco's modification of Eagle's medium (GIBCO) supplemented with 5% fetal bovine serum (GIBCO), 1% penicillin-streptomycin (GIBCO) in a 5% CO2, 95% air humidified atmosphere at 37° C. […] MTT reagent was added to the cells at the end of the 24-hour treatment period. After a 3-hour reaction time, MTT products were dissolved in DMSO and absorbance at 570 nm was taken.

[2] = tested on: human melanoma A375 cell line; experiment: MTT cell viability assay, A375; assay type: cell-based; details: A-375, 24 h
Procedure: (§1) The human colorectal carcinoma HCT-116 cell line, human pancreatic ductal adenocarcinoma PANC-1 cell line, human melanoma A375 cell line and human embryonic kidney HEK293 cell line were purchased from the American Type Culture Collection. Cells were cultured in high glucose DMEM growth medium supplemented with 10% fetal bovine serum, penicillin and streptomycin (100 U) in a humidified atmosphere of 5% CO2, 95% air at 37° C. Upon the addition of dihydro-resveratrol (D-res) to the HCT-116, PANC-1, A375 or HEK293 cells seeded at a density of 8000 cells per well in a 96-well plate format, the viability of the testing cells was determined 24 h post treatment using the (3-(4,5-dimethylthiazol-2-yl)-2,5-diphenyltetrazolium bromide) tetrazolium (MTT) reduction assay and expressed as growth inhibition of 50% (GI50, Table 6).

[3] = tested on: human pancreatic ductal adenocarcinoma PANC-1 cell line; experiment: MTT cell viability assay, PANC-1; assay type: cell-based; details: PANC-1 pancreatic ductal adenocarcinoma, 24 h
Procedure: as §1

[4] = tested on: A375 human melanoma cells; experiment: cell migration assay, A375; assay type: cell-based; details: A375, 25 μM, 24-h treatment
[5] = tested on: Trichophyton mentagrophytes; experiment: anti-fungal growth inhibition, T. mentagrophytes; assay type: cell-based; details: Trichophyton mentagrophytes, 168 h
Procedure: Evaluation of anti-fungal activity. In a single well of the 96-well microplate, 10 μL of the testing compound is added into 190 μL of growth medium (Difco™ YM) containing an overnight culture of Trichophyton rubrum or Trichophyton mentagrophytes at a density of approximately 5×10^5 CFU. The testing compounds include dihydro-resveratrol and DR1 to DR11. Wells incubated with 10 μL 0.5% DMSO only (i.e. no testing compound) are served as the experimental control of fungal growth whilst those incubated with growth medium only (i.e. no fungi) are served as the negative control. […] The percentage of growth inhibition of T. mentagrophytes by the different concentrations of testing compounds is shown in Table 10 whilst the percentage of growth inhibition of T. rubrum is shown in Table 11. The images of T. mentagrophytes culture are captured post treatment of dihydro-resveratrol (100 μM) and DR8 (100 μM) when compared to the growth of experimental control and negative control (FIG. 30).

Streptococcus mutans = experiment: anti-bacterial growth inhibition, S. mutans; assay type: cell-based; details: Streptococcus mutans, 10 h
Procedure: Evaluation of anti-bacterial activity. In a single well of the 96-well microplate, 10 μL of the testing compound is added into 190 μL of growth medium growth medium (BBL™ Brain Heart Infusion) containing an overnight culture of Streptococcus mutans or Streptococcus sobrinus at a density of approximately 5×10^5 CFU. The testing compounds include dihydro-resveratrol and DR1 to DR11. Wells incubated with 10 μL 0.5% DMSO only (i.e. no testing compound) are served as the experimental control of bacterial growth whilst those incubated with growth medium only (i.e. no bacteria) are served as the negative control. […] The percentage of growth inhibition of S. mutans by the different concentrations of testing compounds is shown in Table 12 whereas the percentage of growth inhibition of S. sobrinus is shown in Table 13. The images of S. mutans culture are captured post treatment of dihydro-resveratrol (100 μM) and DR8 (100 μM) when compared to the growth of experimental control and negative control (FIG. 31).

[6] = read-out: Inhibition rate (25 μM)
[7] = read-out: Inhibition rate (50 μM)
[8] = read-out: Inhibition rate (100 μM)

Oc1ccc(CCc2cc(O)cc(O)c2)cc1 [Dihydro-resveratrol, trans-3,5,4′-trihydroxybibenzyl]
Plasma α-amylase activities (mean) ([1]; Cerulein + D-Res 10 mg (oral 10 mg/kg)): 0.2891 U/μl/minute
Plasma α-amylase activities (mean) ([1]; Cerulein + D-Res 20 mg (oral 20 mg/kg), #p<0.05 vs cerulein group): 0.2498# U/μl/minute
Plasma α-amylase activities (mean) ([1]; Cerulein + D-Res 50 mg (oral 50 mg/kg), #p<0.05 vs cerulein group): 0.2431# U/μl/minute
MPO activities in pancreatic and pulmonary tissues ([1]; oral): significantly reduced
ameliorative effect on reducing pancreatic edema compared with trans-resveratrol ([1]; oral): more promising than that of trans-resveratrol
glutathione level in cerulein-induced pancreata ([1]; oral): significantly suppressed glutathione depletion
levels of TNF-α in pancreatic and pulmonary tissues ([1]; oral, ELISA): significantly reduced
focal expansion of interlobular septae, cytoplasmic shrinkage and leukocyte infiltration in pancreatic parenchyma ([1]; oral, H&E): remarkably reduced
pulmonary wall thickening and hemorrhage in lung tissues ([1]; oral, H&E): significantly improved
pancreatic edema (weight ratio of pancreas to body) ([1]; oral, not less than 20 mg/kg): notably reduced the pancreatic edema
cytotoxicity (MTT, mitochondrial metabolic rates) (pancreatic acinar cells): approximately 500 μM
GI50 [2]: 107 ± 3.37 µM
GI50 [3]: 116 ± 3.09 µM
migratory ability [4]: significant reduction in the migratory ability
inhibition at 25 µM [5, 6]: 4.52%
inhibition at 50 µM [5, 7]: 15.3%
inhibition at 100 µM [5, 8]: 30.8%
inhibition at 25 µM (Streptococcus mutans; [6]): 6.32%
inhibition at 50 µM (Streptococcus mutans; [7]): 2.34%
inhibition at 100 µM (Streptococcus mutans; [8]): 2.09%
